The subject of the test is mouse epidermal mitotic rate. The test can be described thus: change in mouse epidermal mitotic rate after intraperitoneal injection (Colcemid method). The class given is in vivo. The conditions noted are these: 10^-13 moles of peptide injected per mouse, first three hours after injection, versus control animals from the same cage. The method, then:
In the following Table 1 the in vivo result (change in mouse epidermal mitotic rate) has been described as an example for one of the dipeptides. The epidermal mitotic rate was measured for the first three hours after intraperitoneal injection of the dipeptide. Mitotic rate was determined by means of "Colcemid". A reduced rate was determined as a percentage in comparison with control animals from the same cage.

Non-standard residues stand in square brackets, D forms with d. No end group written: not given here. pGlu = O=C1CC[C@@H](C(=O)O)N1

Consider [pGlu]-Gly, for which the “Decrease in mitotic rate” value is given as 40%.

The values are drawn from patent publication US4868156A, “Pharmaceutical preparation containing a dipeptide with cell growth regulating effect” (Bio-Tech A/S, priority 1986, dated 1989).
